Experimental data from patent US9463194B2, “Methods of treating patients co-infected with HIV and tuberculosis” (priority 2014, dated 2016).
≈ marks a conversion by molar mass, not a printed value. Entries after “also recorded” stand apart in the source; their conditions may differ.

What was measured:
[1] = Steady-state pharmacokinetic interaction study of EVG/COBI Composition plus evening COBI plus RFB QOD in healthy volunteers; type: in vivo, human
Procedure: “Ctau” or “Ctrough” is a pharmacokinetic (PK) parameter that refers to the concentration of the drug at the end of the dosing interval. This parameter is obtained by direct measurement of the drug concentrations in a plasma sample collected from the study subject at the end of the dosing interval (i.e., 24 hours post-dose) using a validated high-performance liquid chromatography/tandem mass spectrometry (HPLC/MS/MS) bioanalytical assay.
This study evaluated the steady-state pharmacokinetics and safety of the coadministered Composition and an additional dose of COBI in combination with RFB QOD.
Lack of PK alteration bounds for 90% confidence intervals (CI) about the geometric mean ratio (GMR) (coadministration: alone) were 70-143% for EVG and RFB.

[2] = RFB metabolite; cited from earlier work
[3] = in vivo; cited from earlier work
wild type HIV virus = assay: In vitro assay of concentration-dependent inhibition of wild type HIV virus (IC95); type: cell-based
From the text: “IC95” or “EC95” refers to the inhibitory concentration required to achieve 95% of the maximum desired effect, which in the case of EVG is the inhibition of the HIV virus. This term is obtained using an in vitro assay evaluating the concentration-dependent inhibition of wild type HIV virus.

[4] = ritonavir-boosted EVG + RFB QOD; cited from earlier work
[5] = coadministration (Composition QD + COBI 150 mg evening + RFB 150 mg QOD) : alone, healthy volunteers, n = 14, steady state

**Q.** With 25-O-desacetylrifabutin as the compound, how does the “exposure higher versus RFB alone” value ([1]; RFB metabolite, EVG QD + COBI BID + RFB QOD versus RFB alone) read?
**A.** ~12 fold

**Q.** And the “contribution to total antimycobacterial activity” value [2]?
**A.** ~10%

**Q.** Which “exposures upon coadministration with RFB (previous research)” value [3] does the source give for `CC(C)c1nc(CN(C)C(=O)N[C@@H](CCN2CCOCC2)C(=O)N[C@H](CC[C@H](Cc2ccccc2)NC(=O)OCc2cncs2)Cc2ccccc2)cs1` [COBI] here?
**A.** substantially lower

**Q.** What about the “levels lower by 24 hrs post dose when co-administered with RFB” value [3] of the same compound?
**A.** 70%

**Q.** For `COc1cc2c(cc1Cc1cccc(Cl)c1F)c(=O)c(C(=O)O)cn2[C@H](CO)C(C)C` [EVG, elvitegravir], which IC95 (wild type HIV virus) is on record?
**A.** 0.045 µg/mL (≈ 0.1 µM)

**Q.** And the “exposures upon coadministration with RFB (previous research)” value [3]?
**A.** substantially lower

**Q.** And the “levels lower by 24 hrs post dose when co-administered with RFB” value [3]?
**A.** 70%

**Q.** Which results are given for `CO[C@H]1/C=C/O[C@@]2(C)Oc3c(C)c(O)c4c(c3C2=O)C2=NC3(CCN(CC(C)C)CC3)NC2=C(NC(=O)/C(C)=C\C=C\[C@H](C)[C@H](O)[C@@H](C)[C@@H](O)[C@@H](C)[C@H](OC(C)=O)[C@@H]1C)C4=O` [RFB, 1′,4-didehydro-1-deoxy-1,4-dihydro-5′-(2-methylpropyl)-1-oxorifamycin XIV]?
**A.** exposures versus reference treatment (in words) ([1]; Composition QD + COBI 150 mg evening + RFB 150 mg QOD, no-effect boundary 70-143%): within the predefined no-effect boundary; also recorded: clinically equivalent exposures; Ctau higher versus reference treatments ([1]; EVG QD + COBI BID + RFB QOD versus reference treatment): 41%; AUCtau % GMR (90% CI) [1, 5]: 114.44 (100.27, 130.62) %; Cmax % GMR (90% CI) [1, 5]: 116.26 (101.44, 133.23) %; Ctau % GMR (90% CI) [1, 5]: 140.76 (123.76, 160.09) %

**Q.** With `CC(C)c1nc(CN(C)C(=O)N[C@H](C(=O)N[C@@H](Cc2ccccc2)C[C@H](O)[C@H](Cc2ccccc2)NC(=O)OCc2cncs2)C(C)C)cs1` [ritonavir] as the compound, how does the “exposure when co-administered with RFB QOD (ritonavir boosting, in words)” value [4] read?
**A.** maintained through the end of the dosing interval
